Test system: normal human keratinocytes/stratified squamous epithelium (EPIOCULAR model)
Test: Ocular irritation test - MTT assay on EPIOCULAR model
Type: cell-based
Protocol: Another Ocular Irritation Study was done by exposing a microemulsion containing polyoxyl 35 castor oil in accordance with an embodiment of the present disclosure onto normal human keratinocytes/stratified squamous epithelium which is similar to that found in the cornea epithelium of the human eye (EPIOCULAR model), and then checking tissue viability with MTT assay for cytoxicity after incubation in comparison with a water control (Cyprotex). The study design and results are summarized below in Table 7.

## COC(C)=O [Methyl Acetate]
EPIOCULAR model
  Irritation Response (Irritant if ≤60%): Positive
In comparison with a water control
  Mean Tissue Viability: 31.1%

Source: patent US20220031625A1, “OPHTHALMIC COMPOSITIONS FOR DELIVERING MEIBUM-LIKE MATERIALS” (Altaire Pharmaceuticals, Inc., priority 2020, published 2022)
